Earlier results on five compounds are cited in paper PMC6906348 (Therapeutic Advances in Medical Oncology, 2019).

Data set [1] deals with patients progressing on or after sorafenib treatment (HCC). Conditions: cited from earlier work.
For data set [2], the system named is patients with unresectable advanced HCC. Conditions: cited from earlier work.
Data set [3] has the same test system. The following applies: cited from earlier work. This is another data set of the same source.
The test system of data set [4] is Asian patients with advanced HCC. The following applies: cited from earlier work.
Data set [5] concerns patients with MET-high HCC. Conditions: MET-high HCC defined by IHC ⩾2+ in ⩾50% of tumor cells; cited from earlier work.
The test system of data set [6] is patients with advanced HCC. Conditions: cited from earlier work.

Read-outs that look alike come from different tables or passages of the source.

As to `CNC(=O)c1cc(Oc2ccc(NC(=O)Nc3ccc(Cl)c(C(F)(F)F)c3)c(F)c2)ccn1` [regorafenib], the overall response rate in data set [1] (versus 4% in the placebo arm) is 11%. Besides, the overall survival in data set [1] (versus 7.8 months for placebo) is 10.6 months.
`CNC(=O)c1cc(Oc2ccc(NC(=O)Nc3ccc(Cl)c(C(F)(F)F)c3)cc2)ccn1` [sorafenib]: the “HR, overall survival” value in data set [2] (sorafenib group versus placebo) is 0.68. Besides, the values for the median overall survival in data set [2] (versus 4.2 months for placebo) and in data set [3] (versus 7.9 months for placebo) were 6.5 months and 10.7 months, respectively. In addition, the “hazard ratio (HR), overall survival” value in data set [3] (sorafenib group versus placebo) is 0.69. Also, in data set [3] (versus 1% for placebo), the overall response rate was 2%. The “median time to progression (TTP)” value in data set [3] (versus 2.8 months for placebo) is recorded as 5.5 months. The disease control rate in data set [3] (versus 32% for placebo) is 43%.
`CN1CCC(COc2cnc(-c3cccc(Cn4nc(-c5cccc(C#N)c5)ccc4=O)c3)nc2)CC1` [tepotinib]: the “MET-positive patients with partial responses” value in data set [4] (MET-positive defined as ⩾50% tumor IHC 2+/3+) was 2/7. The “patients with partial responses” value in data set [4] (unselected patients, 2/27) is 7.4%. The disease control rate in data set [4] (unselected patients) is given as 37%.
As for `O=C1NC(=O)[C@@H](c2cn3c4c(cccc24)CCC3)[C@@H]1c1c[nH]c2ccccc12` [tivantinib], the study outcome in data set [5] was “negative”.
As to nivolumab, the overall response rate in data set [6] (all patients) was 20%; in data set [6] (sorafenib-treated patients), 14%.
